Assay in all cases: inhibition of tumour cell growth, NCI panel, 48 h
The test system of assay [1] is SR.
For assay [2], the system named is SF-268.
For assay [3], the system named is HT-29.
Assay [4] relates to SNB-19.
Assay [5] relates to SW-620.
For assay [6], the system named is OVCAR-5.
Assay [7] relates to CAKI-1.
Assay [8] relates to RPMI-8226.
The subject of assay [9] is HL-60.
The test system of assay [10] is HCT-15.
The test system of assay [11] is IGROV-1.
For assay [12], the system named is U-251.
Assay [13] deals with SF-295.
Assay [14] relates to NCI-H460.
For assay [15], the system named is HCC 2998.
Assay [16] deals with HOP-92.

Experimental findings from ChEMBL document CHEMBL1201862, “PubChem BioAssay data set” (2004) are described below.

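48-hour exposure; five concentrations; linearly interpolated endpoints. The concentration for 50% growth inhibition is given as GI50.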 Calls of active or inactive are those of the source. Cut-off read from the data, not from the text of the source: active = GI50 up to about 1.1 µM and inactive = higher. Where only a bound is given, the exact number is not on record here.

On to `O=C1C=CC=CC2CC=C[C@@H](O)C12` (stereo partly specified), for which the GI50 in [1] is 18.8 µM (inactive); in assay [2] it was 21.3 µM (inactive); in assay [3] it was 16.8 µM (inactive); in assay [4], 22.9 µM (inactive); in [5], 10.5 µM (inactive); in assay [6], 30.5 µM (inactive). Besides, the GI50 in assay [7] is 65.6 µM (inactive); in [8], 3.41 µM (inactive); in [9] it was 15.5 µM (inactive); in assay [10], 17.3 µM; in [11], 39.6 µM (inactive); in assay [12], > 10 µM (inactive). Moreover, the GI50 in assay [13] is 20.7 µM (inactive); in assay [14], 18.4 µM (inactive).
In the case of `COc1cccc2c1[C@H]1OC(=O)NC1CCCCC2` (stereo partly specified), the GI50 in assay [2], in assay [3], in assay [4], in assay [5], in assay [6] and in assay [7] was > 100 µM (inactive) in each case. For the same compound, the GI50 in [8] was > 100 µM (inactive); in [9], > 100 µM (inactive); in assay [10], > 100 µM; in assay [15], > 100 µM (inactive); in assay [11], > 100 µM (inactive); in assay [12], > 100 µM (inactive). The GI50 in assay [13] and in [14] was > 100 µM (inactive) throughout.
`O=C1Nc2ccccc2/C1=N/NC(=O)c1ccccc1O`: the GI50 in assay [2] is 44.4 µM (inactive); in assay [3] it was 82.2 µM (inactive); in assay [4] it was 62.2 µM (inactive); in [5], 46.8 µM (inactive); in assay [6], > 100 µM (inactive); in assay [8], 56.5 µM (inactive). Also, the GI50 in assay [9] was 27.7 µM (inactive); in assay [10], 32.6 µM; in assay [15] it was 23 µM (inactive); in assay [12] it was 23.2 µM (inactive); in [13], 27.9 µM (inactive); in [14], 34.8 µM (inactive).
For `CC1CCP(=O)(c2ccccc2)CC1` (stereo unspecified), the GI50 in assay [2], in assay [3], in [4], in [5], in [6] and in assay [7] was > 100 µM (inactive) in each case. The GI50 in [8] was > 100 µM (inactive); in assay [9], > 100 µM (inactive); in assay [10] it was > 100 µM; in [15], > 100 µM (inactive); in assay [11] it was > 100 µM (inactive); in assay [12] it was > 100 µM (inactive). The GI50 in assay [13] and in assay [14] was > 100 µM (inactive) in each case.
`[O-][n+]1c2cc(CN3CCOCC3)c(CN3CCOCC3)cc2[n+]([O-])c2c(O)cccc21`: the GI50 was 0.193 µM (active) in assay [1]; 1.05 µM (active) in [2]; 3.91 µM (inactive) in assay [3]; 9.44 µM (inactive) in [4]; 2.94 µM (inactive) in [5]; 4.38 µM (inactive) in assay [6]. Besides, the GI50 is 2 µM (inactive) in assay [16]; 3.32 µM (inactive) in assay [8]; 0.807 µM (active) in assay [9]; 3.44 µM in assay [10]; 5 µM (inactive) in [11]; 3.25 µM (inactive) in assay [12]. Also, the values for the GI50 in [13] and in assay [14] were 0.478 µM (active) and 0.993 µM (active), respectively.
Regarding `CC(=O)NC(CCCCNCc1ccccc1)C(=O)NCc1ccccc1` (stereo unspecified), the GI50 in assay [2], in assay [3], in assay [4], in assay [5], in assay [6] and in [7] was > 100 µM (inactive) each time. The GI50 in assay [16] was > 100 µM (inactive); in [8], > 100 µM (inactive); in assay [10] it was > 100 µM; in [15] it was > 100 µM (inactive); in assay [11], > 100 µM (inactive); in [12] it was > 100 µM (inactive). The GI50 in [13] and in assay [14] was > 100 µM (inactive) in each case.
As for `CCOC(=O)NC(=O)c1cn(CCCO)c(=O)[nH]c1=O`, the GI50 in assay [2], in assay [3], in [4], in [5], in assay [6] and in [7] was > 100 µM (inactive) in each case. Besides, the GI50 in assay [16] was > 100 µM (inactive); in assay [8], > 100 µM (inactive); in assay [10], > 100 µM; in assay [15] it was > 100 µM (inactive); in [11] it was > 100 µM (inactive); in assay [12], > 100 µM (inactive). Further, the GI50 in assay [13] and in [14] was > 100 µM (inactive) each time.
Turning to `CN(C)c1[se]nc2c1c(=O)n(C)c(=O)n2C`, the GI50 in assay [2], in assay [3], in [4], in assay [5], in assay [6] and in [7] was > 100 µM (inactive) each time. Besides, the GI50 in assay [16] is > 100 µM (inactive); in assay [8], > 100 µM (inactive); in assay [9], > 100 µM (inactive); in assay [10], > 100 µM; in [15], > 100 µM (inactive); in [11], > 100 µM (inactive). In addition, the GI50 in assay [12], in assay [13] and in assay [14] was > 100 µM (inactive) in each case.
Consider `O=c1c2cc(Br)cc(Br)c2[nH]c(=S)n1-c1ccccc1`, for which the GI50 in assay [2] is 52.4 µM (inactive); in [3] it was > 100 µM (inactive); in assay [4], 60.8 µM (inactive); in assay [5] it was 71.4 µM (inactive); in assay [6], > 100 µM (inactive); in assay [7], 54.5 µM (inactive). Also, the GI50 in assay [16] was 28.9 µM (inactive); in [8], 28.9 µM (inactive); in assay [10], 90.2 µM; in assay [15] it was 92.5 µM (inactive); in assay [11], > 100 µM (inactive); in [12], 85.5 µM (inactive). In addition, the GI50 in assay [13] and in assay [14] was > 100 µM (inactive) in each case.
For `CC(C(=O)c1ccccc1)C1(O)C(=O)Nc2ccc(Cl)cc21` (stereo unspecified), the GI50 in [2] was > 100 µM (inactive); in assay [3] it was 75.7 µM (inactive); in assay [4], > 100 µM (inactive); in assay [5], 49.1 µM (inactive); in assay [6], > 100 µM (inactive); in [7], > 100 µM (inactive). The GI50 in assay [16] was > 100 µM (inactive); in assay [8] it was 48 µM (inactive); in assay [10], 81.8 µM; in assay [15], > 100 µM (inactive); in assay [11], > 100 µM (inactive); in [12], 53.8 µM (inactive). Besides, the GI50 in assay [13] and in assay [14] was > 100 µM (inactive) throughout.
For `CN(C(=O)C12C3C4C1C1C2C3C41C(O)C(C)(C)C)C(C)(C)C` (stereo unspecified), the GI50 in assay [2], in assay [3], in assay [4], in assay [5], in assay [6] and in [7] was > 100 µM (inactive) each time. In addition, the GI50 in [8], in assay [9], in assay [15], in assay [11], in [12] and in [13] was > 100 µM (inactive) throughout. Also, the GI50 in [14] is > 100 µM (inactive).
For `CSc1nc(NC2OCC(OC(C)=O)C(OC(C)=O)C2OC(C)=O)c2c(OC(C)=O)c(C)c(=O)oc2n1` (stereo unspecified), the GI50 in assay [3] was > 100 µM (inactive); in [4], > 100 µM (inactive); in assay [5] it was > 100 µM (inactive); in assay [6], > 100 µM (inactive); in assay [7], > 100 µM (inactive); in [16], 71.6 µM (inactive). Further, the GI50 was > 100 µM (inactive) in assay [8]; > 100 µM (inactive) in assay [9]; > 100 µM in assay [10]; > 100 µM (inactive) in [15]; > 100 µM (inactive) in assay [11]; > 100 µM (inactive) in [12]. Moreover, the GI50 in assay [13] and in assay [14] was > 100 µM (inactive) in each case.
Take `O=C1CCN2C(=O)CCN12`: the GI50 in [1], in assay [2], in assay [3], in assay [4], in assay [5] and in assay [6] was > 100 µM (inactive) throughout. Besides, the GI50 in [7], in assay [16], in assay [8], in [9], in [12] and in assay [13] was > 100 µM (inactive) each time. In assay [14], the GI50 is > 100 µM (inactive).
Consider `O=C(O)c1ccccc1NS(=O)(=O)c1ccc([N+](=O)[O-])cc1`, for which the GI50 in [2], in assay [3], in [4], in assay [5], in [6] and in assay [7] was > 100 µM (inactive) in each case. The GI50 was > 100 µM (inactive) in [8]; > 100 µM in [10]; > 100 µM (inactive) in [15]; > 100 µM (inactive) in [11]; > 100 µM (inactive) in assay [12]; > 100 µM (inactive) in assay [13]. The GI50 in [14] is > 100 µM (inactive).
For `CC(=O)NNc1nc(C)c(C(=O)/C=C/c2ccc(Cl)cc2)s1`, the GI50 in assay [2], in assay [3], in [4], in [5], in assay [6] and in assay [7] was > 100 µM (inactive) in each case. The GI50 in assay [16], in assay [8], in assay [9], in assay [15], in [11] and in assay [12] was > 100 µM (inactive) in each case. Besides, the GI50 in assay [13] and in assay [14] was > 100 µM (inactive) each time.
